Source: patent US20100081679A1, “DIAMINOPYRIMIDINES AS FUNGICIDES” (Bayer CropScience AG, priority 2007, published 2010)
Marks after values point to notes of the source that are not given here.

Assay: logP determination via retention times, calibrated with unbranched alkan-2-ones
Type: physicochemical
Settings: HPLC on reversed-phase C 18, EEC Directive 79/831 Annex V.A8; method **: 43° C., 0.1% aqueous phosphoric acid and acetonitrile, linear gradient 10% to 95% acetonitrile

logP	SMILES
2.96**	Fc1ccc(Nc2ncc(C(F)(F)F)c(NC3CC3)n2)cc1 [compound 498]

Same assay, conditions: HPLC on reversed-phase C 18, EEC Directive 79/831 Annex V.A8; method *: 40° C., 0.1% aqueous formic acid and acetonitrile, linear gradient 10% to 95% acetonitrile

logP	SMILES
1.29*	CC(=O)Nc1cc(Nc2ncc(Cl)c(NCC3CC3)n2)ccc1O [compound 552]
1.49*	CN(C)C(=O)Nc1ccc(Nc2ncc(Cl)c(NCC3CC3)n2)cc1 [compound 548]
2.63*	CC1CC(C)CN(c2cccc(Nc3ncc(Br)c(NC4CC4)n3)c2)C1 (stereo not shown) [compound 529]
1.66*	COC(=O)Nc1cccc(Nc2ncc(Cl)c(NCC3CC3)n2)c1 [compound 515]
1.44*	CNC(=O)c1ccc(Nc2ncc(Cl)c(NCC3CC3)n2)cc1 [compound 510]
1.17*	O=C1COCCN1c1ccc(Nc2ncc(Cl)c(NC3CC3)n2)cc1 [compound 495]
1.49*	Oc1ccc(Nc2ncc(Cl)c(NCC3CC3)n2)cc1F [compound 554]
1.97*	CCC(=O)Nc1cc(Nc2ncc(Br)c(NCC3CC3)n2)ccc1O [compound 494]
1.73*	CC(C)C(=O)Nc1ccc(Nc2ncc(Cl)c(NCC3CC3)n2)cc1 [compound 526]

Same assay, conditions: HPLC on reversed-phase C18, method **: 43° C.; mobile phase 0.1% aqueous phosphoric acid and acetonitrile; linear gradient 10% to 95% acetonitrile

logP	SMILES
1.99**	CC(C)(C)NS(=O)(=O)Cc1ccc(Nc2ncc(Cl)c(NC3CC3)n2)cc1 [compound 326]
1.75**	CC(C)NS(=O)(=O)Cc1ccc(Nc2ncc(Cl)c(NC3CC3)n2)cc1 [compound 324]

Same assay, conditions: HPLC on reversed-phase C18, method *: 40° C., 0.1% aqueous formic acid and acetonitrile, linear gradient 10% to 95% acetonitrile

SMILES	logP
CCCCC(=O)Oc1ccc(Nc2ncc(Cl)c(NC3CC3)n2)cc1 [compound 106]	3.68*
CC(C)(C)OC(=O)NCc1ccc(Nc2ncc(Cl)c(NCC3CC3)n2)cc1 [compound 162]	2.21*

Further lines, results first:

logP	SMILES
1.36*	Oc1ccc(Nc2ncc(Cl)c(NCC3CC3)n2)cc1 [compound 680]
2.91*	Fc1ccc(F)c(Nc2ncc(Cl)c(NC3CC3)n2)c1 [compound 948]
1.96*	CC(C)c1ccccc1Nc1ncc(Cl)c(NC2CC2)n1 [compound 872]
1.49*	CC(=O)Nc1cc(Nc2ncc(Cl)c(NCC3CC3)n2)ccc1C [compound 679]
1.83*	Cc1ccc(C)c(Nc2ncc(Cl)c(NC3CC3)n2)c1 [compound 935]
1.94*	O=C(c1cccc(Nc2ncc(Cl)c(NC3CC3)n2)c1)N1CCCCC1 [compound 770]
2.26*	N#Cc1cccc(Nc2ncc(Br)c(NC3CC3)n2)c1 [compound 741]
3.14*	FC(F)C(F)(F)Oc1ccccc1Nc1ncc(Cl)c(NC2CC2)n1 [compound 896]
1.33*	O=C(c1cccc(Nc2ncc(Cl)c(NC3CC3)n2)c1)N1CCOCC1 [compound 735]
1.68*	Cc1cc(F)ccc1Nc1ncc(Cl)c(NC2CC2)n1 [compound 945]

Same assay, conditions: HPLC on reversed-phase C18, method *: 40° C.; mobile phase 0.1% aqueous formic acid and acetonitrile; linear gradient 10% to 95% acetonitrile

logP	SMILES
2.41*	C#Cc1cccc(Nc2ncc(Br)c(NC3CC3)n2)c1 [compound 340]
2.16*	O=S(=O)(c1cccc(Nc2ncc(Br)c(NC3CC3)n2)c1)N1CCCCC1 [compound 354]
1.81*	CCCNS(=O)(=O)Cc1cccc(Nc2ncc(Cl)c(NC3CC3)n2)c1 [compound 335]
2.39*	CC(C)(C)C(=O)Cc1ccc(Nc2ncc(Br)c(NC3CC3)n2)cc1 [compound 355]
2.06*	CCOc1cccc(Nc2ncc(Cl)c(NC3CC3)n2)c1 [compound 293]

Same assay, conditions: HPLC on reversed-phase C18 column (EEC Directive 79/831 Annex V.A8); method *: 40° C.; 0.1% aqueous formic acid and acetonitrile; linear gradient 10% to 95% acetonitrile

logP	SMILES
3.81*	O=S(=O)(c1cccc(Nc2ncc(C(F)(F)F)c(NCC3CC3)n2)c1)N1CCCCC1 [compound 209]
3.03*	FC(F)C(F)(F)Oc1cccc(Nc2ncc(Cl)c(NC3CC3)n2)c1 [compound 182]
0.61*	O=C1NC(=O)C(c2ccc(Nc3ncc(Cl)c(NC4CC4)n3)cc2)N1 (stereo not shown) [compound 176]
1.57*	CC1COC(=O)N1c1cccc(Nc2ncc(Cl)c(NC3CC3)n2)c1 (stereo not shown) [compound 267]
1.8*	COCc1cccc(Nc2ncc(Br)c(NC3CC3)n2)c1 [compound 269]
1.88*	COc1cc(Nc2ncc(Br)c(NCC3CC3)n2)cc(OC)c1OC [compound 190]
2.9*	Clc1cnc(Nc2cccc(-c3cccs3)c2)nc1NC1CC1 [compound 197]
2.23*	O=C1CCCN1c1cccc(Nc2ncc(C(F)(F)F)c(NC3CC3)n2)c1 [compound 255]
1.99*	CCOC(=O)Cc1ccc(Nc2ncc(Cl)c(NC3CC3)n2)cc1 [compound 247]

Same assay, conditions: HPLC reversed-phase C 18, EEC Directive 79/831 Annex V.A8; method **: 43° C., 0.1% aqueous phosphoric acid and acetonitrile, linear gradient 10% to 95% acetonitrile

logP	SMILES
1.31**	Cc1nc(Nc2ccc(N3CCOC3=O)cc2)nc(NC2CC2)c1Cl [compound 840]
1.38**	CN1CCN(c2ccc(Nc3ncc(Cl)c(NC4CC4)n3)cc2C(F)(F)F)CC1 [compound 846]

Same assay, conditions: HPLC reversed-phase C 18, EEC Directive 79/831 Annex V.A8; method *: 40° C., 0.1% aqueous formic acid and acetonitrile, linear gradient 10% to 95% acetonitrile

logP	SMILES
2.63*	O=[N+]([O-])c1cccc(Nc2ncc(Cl)c(NC3CC3)n2)c1 [compound 788]
1.76*	N#CCc1cc(Nc2ncc(Cl)c(NC3CC3)n2)ccc1F [compound 813]
2.71*	CC(C)c1cccc(Nc2ncc(Cl)c(NCC3CC3)n2)c1 [compound 777]
1.99*	COc1cc(CC#N)ccc1Nc1ncc(Br)c(NC2CC2)n1 [compound 818]
1.51*	CC(=O)Cc1cccc(Nc2ncc(Cl)c(NC3CC3)n2)c1 [compound 780]
3.81*	CSC(C)c1cccc(Nc2ncc(C(F)(F)F)c(NC3CC3)n2)c1 (stereo not shown) [compound 825]

Same assay, conditions: method **: HPLC reversed-phase C 18, 43° C., 0.1% aqueous phosphoric acid and acetonitrile, linear gradient 10% to 95% acetonitrile

logP	SMILES
1.75**	Cl.Clc1cnc(Nc2ccccc2)nc1NC1CC1 [Example 29]
1.51**	NS(=O)(=O)c1cccc(Nc2ncc(Cl)c(NCC3CC3)n2)c1 [Example 16]
2.04**	CN(C)S(=O)(=O)c1cccc(Nc2ncc(Cl)c(NC3CC3)n2)c1 [Example 28]
2.13**	O=S(=O)(c1cccc(Nc2ncc(Cl)c(NC3CC3)n2)c1)N1CCOCC1 [Example 19]
2.9**	O=[N+]([O-])c1ccc(Nc2ncc(Cl)c(NC3CC3)n2)cc1 [compound 438]
2.23**	CCOC1(Nc2nc(Nc3ccccc3)ncc2Cl)CC1 [compound 39]
2.09**	COc1cc(Nc2ncc(Cl)c(NCC3CC3)n2)cc(OC)c1 [compound 11]

Same assay, conditions: method **: HPLC, reversed-phase C 18, 43° C., mobile phase 0.1% aqueous phosphoric acid and acetonitrile, linear gradient from 10% to 95% acetonitrile

logP	SMILES
1.93**	CC1(C)CC1Nc1nc(Nc2cccc(N3CCOC3=O)c2)ncc1Cl (stereo not shown) [compound 1035]

Same assay, conditions: method *: HPLC reversed-phase C18, 40° C., 0.1% aqueous formic acid and acetonitrile, linear gradient 10% to 95% acetonitrile

logP	SMILES
2.09*	CS(=O)(=O)c1ccc(Nc2ncc(Br)c(NCC3CC3)n2)cc1 [compound 448]
2.21*	CSc1cccc(Nc2ncc(Cl)c(NC3CC3)n2)c1 [Example 74]
1.06*	COC(=O)Nc1ccc(Nc2ncc(C)c(NC3CC3)n2)cc1 [compound 446]
2.3*	CC(C)(C)NC(=O)c1ccc(Nc2ncc(Br)c(NCC3CC3)n2)cc1 [compound 426]
2.68*	O=S(=O)(c1ccc(Nc2ncc(Cl)c(NC3CC3)n2)cc1)N1CCOCC1 [compound 85]
2.48*	CC(C)(C)C(=O)Cc1ccc(Nc2ncc(Br)c(NCC3CC3)n2)cc1 [compound 455]
2.1*	CSc1ccc(Nc2ncc(Cl)c(NC3CC3)n2)cc1 [Example 69]
3.75*	CC(C)CSc1cccc(Nc2ncc(Cl)c(NC3CC3)n2)c1 [compound 435]
1.39*	O=C1OCCN1c1ccc(Nc2ncc(Cl)c(NC3CC3)n2)cc1 [compound 83]
1.58*	O=C1CCCCN1Cc1cccc(Nc2ncc(Cl)c(NC3CC3)n2)c1 [compound 373]
1.39*	CNC(=O)c1cccc(Nc2ncc(Br)c(NC3CC3)n2)c1 [compound 383]

Same assay, conditions: method *: HPLC reversed-phase C 18, temperature 40° C.; mobile phase 0.1% aqueous formic acid and acetonitrile; linear gradient 10% to 95% acetonitrile

logP	SMILES
1.83*	CN(C)C(=O)c1cccc(Nc2ncc(C#N)c(NC3CC3)n2)c1 [compound 614]
2.36*	CS(=O)(=O)c1ccc(Nc2ncc(C(F)(F)F)c(NC3CC3)n2)cc1 [compound 644]
3.35*	Fc1cc(F)cc(Nc2ncc(Br)c(NC3CC3)n2)c1 [compound 602]
2.36*	CN(C)S(=O)(=O)c1cccc(Nc2ncc(C#N)c(NC3CC3)n2)c1 [compound 617]
1.05*	CNC(=O)c1ccc(Nc2ncc(F)c(NC3CC3)n2)cc1 [compound 584]
2.77*	O=S(=O)(c1cccc(Nc2ncc(C(F)(F)F)c(NC3CC3)n2)c1)N1CCCCC1 [compound 654]
1.45*	CC(=O)c1cccc(Nc2ncc(F)c(NC3CC3)n2)c1 [compound 591]
2.6*	CC(C)(C)C(=O)Nc1cccc(Nc2ncc(C(F)(F)F)c(NC3CC3)n2)c1 [compound 650]

Same assay, conditions: method *: HPLC, reversed-phase C 18, 40° C., mobile phase 0.1% aqueous formic acid and acetonitrile, linear gradient from 10% to 95% acetonitrile

logP	SMILES
2.71*	CCN(CC)C(=O)c1cccc(Nc2ncc(C(F)(F)F)c(NC3CC3)n2)c1 [compound 1049]
0.59*	CN1CCN(C(=O)c2cccc(Nc3ncc(Cl)c(NC4CC4)n3)c2)CC1 [compound 1059]
4.88*	CCCSc1cccc(Nc2ncc(Cl)c(N(C)C3CC3)n2)c1 [compound 983]
3.55*	CCCCCc1ccc(Nc2ncc(Cl)c(NC3CC3)n2)cc1 [compound 1048]
1.93*;	CC1(C)CC1Nc1nc(Nc2cccc(N3CCOC3=O)c2)ncc1Cl (stereo not shown) [compound 1035]
1.58*	COC(=O)c1cc(Nc2ncc(Cl)c(NC3CC3)n2)ccc1OC [compound 1004]
